Values joined by “and” are separate entries in the source; they are usually repeats but may differ in a detail not shown here. Equal values may be shown once. Where a SMILES comes first, the peptide text is derived from it. [ ]: non-standard residue; d: D form. Hyp = O=C(O)[C@@H]1C[C@@H](O)CN1
Tested on: CCL4/MIP-1 beta
Test: Example 8 main study Luminex, LPS hPBMCs: CCL4/MIP-1 beta
Format: cell-based, human
Conditions: for LPS-induced CCL-4 (in words): at as low as 5 μM, LPS 5 ug/mL 24 hrs
Procedure: Human PBMCs were pretreated with YY-101, YDE-011, YDE-043 or reference compound; Xiidra® at various concentration (ranging from […] to 500 nM) for 2 h before stimulation. An equal volume of 0.5% DMSO was used as a vehicle control. Then, the cells were treated with LPS at 5 ug/ml, which was selected based on the pilot study. The supernatants from treated cells were harvested at 24 h and placed in a 96 well for Luminex cytokine & chemokine profiling using a Luminex 200 multiplex assay (Luminex; R&D system, USA).
The main study arm with triplicate wells per group in a 24-well plate: • 1. Blank • 2. PBMC: 0.5% DMSO • 3. PBMC+LPS (5 ug/ml) • 4. PBMC+YY-101 500 nM • 5. PBMC+YY-101 50 nM • 6. PBMC+YY-101 5 nM • 7. PBMC+YY-101 0.5 nM • 8. PBMC+LPS (5 ug/ml)+Xiidra® 500 nM • 9. PBMC+LPS (5 ug/ml)+Xiidra® 50 nM • 10. PBMC+LPS (5 ug/ml)+Xiidra® 5 nM • 11. PBMC+LPS (5 ug/ml)+Xiidra® 0.5 nM • 12. PBMC+LPS (5 ug/ml)+Xiidra® 0.05 nM • 13. PBMC+LPS (5 ug/ml)+Xiidra® 0.005 nM • 14. PBMC+LPS (5 ug/ml)+YY-101 500 nM • 15. PBMC+LPS (5 ug/ml)+YY-101 50 nM • 16. PBMC+LPS (5 ug/ml)+YY-101 5 nM • 17. PBMC+LPS (5 ug/ml)+YY-101 0.5 nM • 18. PBMC+LPS (5 ug/ml)+YY-101 0.05 nM • 19. PBMC+LPS (5 ug/ml)+YY-101 0.005 nM • 20. PBMC+LPS (5 ug/ml)+YDE-011 500 nM • 21. PBMC+LPS (5 ug/ml)+YDE-011 50 nM • 22. PBMC+LPS (5 ug/ml)+YDE-011 5 nM • 23. PBMC+LPS (5 ug/ml)+YDE-011 0.5 nM • 24. PBMC+LPS (5 ug/ml)+YDE-011 0.05 nM • 25. PBMC+LPS (5 ug/ml)+YDE-011 0.005 nM • 26. PBMC+LPS (5 ug/ml)+YDE-043 500 nM • 27. PBMC+LPS (5 ug/ml)+YDE-043 50 nM • 28. PBMC+LPS (5 ug/ml)+YDE-043 5 nM • 29. PBMC+LPS (5 ug/ml)+YDE-043 0.5 nM • 30. PBMC+LPS (5 ug/ml)+YDE-043 0.05 nM • 31. PBMC+LPS (5 ug/ml)+YDE-043 0.005 nM
Multiplex assay was used to measure 30 cytokines and chemokines. The 1:200 diluted cell supernatant and serial dilution of the standard were dispensed into a 96 well plate at 50 ul/well. Then, the pre-mixed cocktail of antibody-coated magnetic beads was dispensed at 50 ul/well and incubated at room temperature for 2 h in a horizontal orbital microplate shaker at 800±500 rpm. The beads were washed using a magnetic device to prevent loss. The biotin-antibody was dispensed in 50 ul of each well and incubated at room temperature for 1 h in a shaker at 800±500 rpm. After washing, streptavidin-PE was added at 50 ul/well and incubated at room temperature for 30 min in a shaker under the same conditions. Finally, after washing, wash buffer (100 ul/well) was added to the plate and incubated in a shaker for 2 min. The Luminex™ 200 setting were set according to the manufacturer's protocol. The data was calculated with a standard five-parameter logistic nonlinear regression analysis of the data (xPonent software 4.2, USA). Results were presented as concentration (ng/ml or pg/ml).

[1] = PBMC + LPS(5 ug/ml) + test article 0.005 nM, Mean
[2] = PBMC + LPS(5 ug/ml) + test article 0.005 nM, single replicates
[3] = PBMC + LPS(5 ug/ml) + test article 0.05 nM, Mean
[4] = PBMC + LPS(5 ug/ml) + test article 0.05 nM, single replicates
[5] = PBMC + LPS(5 ug/ml) + test article 0.5 nM, Mean
[6] = PBMC + LPS(5 ug/ml) + test article 0.5 nM, single replicates
[7] = PBMC + LPS(5 ug/ml) + test article 5 nM, Mean
[8] = PBMC + LPS(5 ug/ml) + test article 5 nM, single replicates
[9] = PBMC + LPS(5 ug/ml) + test article 50 nM, Mean
[10] = PBMC + LPS(5 ug/ml) + test article 50 nM, single replicates
[11] = PBMC + LPS(5 ug/ml) + test article 500 nM, Mean
[12] = PBMC + LPS(5 ug/ml) + test article 500 nM, single replicates
[13] = PBMC + test article 0.5 nM, no LPS, single replicates
[14] = PBMC + test article 5 nM, no LPS, single replicates
[15] = PBMC + test article 0.05 uM, no LPS, single replicates
[16] = PBMC + test article 50 nM, no LPS, single replicates
[17] = PBMC + test article 500 nM, no LPS, single replicates

| Compound | CCL4/MIP-1 beta Concentration [1] | CCL4/MIP-1 beta MFI [1] | CCL4/MIP-1 beta Concentration [2] | CCL4/MIP-1 beta MFI [2] | CCL4/MIP-1 beta Concentration [3] | CCL4/MIP-1 beta MFI [3] | CCL4/MIP-1 beta Concentration [4] | CCL4/MIP-1 beta MFI [4] | CCL4/MIP-1 beta Concentration [5] | CCL4/MIP-1 beta MFI [5] | CCL4/MIP-1 beta Concentration [6] | CCL4/MIP-1 beta MFI [6] | CCL4/MIP-1 beta Concentration [7] | CCL4/MIP-1 beta MFI [7] | CCL4/MIP-1 beta Concentration [8] | CCL4/MIP-1 beta MFI [8] | CCL4/MIP-1 beta Concentration [9] | CCL4/MIP-1 beta MFI [9] | CCL4/MIP-1 beta Concentration [10] | CCL4/MIP-1 beta MFI [10] | further results |
| --- | --- | --- | --- | --- | --- | --- | --- | --- | --- | --- | --- | --- | --- | --- | --- | --- | --- | --- | --- | --- | --- |
| CC(C)C[C@H](NC(=O)CNC(=O)[C@H](CC(C)C)NC(=O)[C@H](CCC(N)=O)NC(=O)CNC(=O)[C@@H]1C[C@@H](O)CN1)C(=O)N[C@@H](C)C(=O)NCC(=O)N1CCC[C@H]1C(=O)N[C@@H](CCCCN)C(=O)O [YDE-011] (H-[Hyp]GQLGLAGPK-OH) | 20786.2 pg/mL | 12.3 | 19701.2 pg/ml (2×) and 22956.0 pg/ml | 12.0 (2×) and 13.0 | 22956.0 pg/mL | 13.0 | 22956.0 pg/mL | 13.0 | 22956.0 pg/mL | 13.0 | 22956.0 pg/mL | 13.0 | 16738.7 pg/mL | 11.3 | 15257.5 pg/ml (2×) and 19701.2 pg/ml | 11.0 (2×) and 12.0 | 23847.2 pg/mL | 13.3 | 25629.7 pg/ml and 22956.0 pg/ml (2×) | 14.0 and 13.0 (2×) | CCL4/MIP-1 beta Concentration [11]: 13759.1 pg/mL; CCL4/MIP-1 beta MFI [11]: 11.3; CCL4/MIP-1 beta Concentration [12]: 19701.2 pg/ml (2×) and 1874.9 pg/ml; CCL4/MIP-1 beta MFI [12]: 12.0 (2×) and 10.0; LPS-induced CCL-4 (in words): significantly reduced |
| CC(C)C[C@H](NC(=O)[C@H](CCC(N)=O)NC(=O)CNC(=O)[C@@H]1C[C@@H](O)CN1)C(=O)NCC(=O)O [YDE-043] (H-[Hyp]GQLG-OH; N-terminus and C-terminus assumed) | 24223.5 pg/mL | 13.7 | 22956.0 pg/mL and 30013.2 pg/mL and 19701.2 pg/mL | 13.0 and 16.0 and 12.0 | 19701.2 pg/mL | 12.0 | 19701.2 pg/mL | 12.0 | 21871.1 pg/mL | 12.7 | 22956.0 pg/ml (2×) and 19701.2 pg/ml | 13.0 (2×) and 12.0 | 20786.2 pg/mL | 12.3 | 19701.2 pg/ml (2×) and 22956.0 pg/ml | 12.0 (2×) and 13.0 | 21205.1 pg/mL | 12.5 | 22956.0 pg/ml (2×) and 17703.4 pg/ml | 13.0 (2×) and 11.5 | CCL4/MIP-1 beta Concentration [11]: 22762.3 pg/mL; CCL4/MIP-1 beta MFI [11]: 13.0; CCL4/MIP-1 beta Concentration [12]: 25629.7 pg/mL and 22956.0 pg/mL and 19701.2 pg/mL; CCL4/MIP-1 beta MFI [12]: 14.0 and 13.0 and 12.0; LPS-induced CCL-4 (in words): significantly reduced |
| CC(C)C[C@H](NC(=O)CNC(=O)[C@H](CC(=O)O)NC(=O)[C@H](CCC(N)=O)NC(=O)CNC(=O)[C@@H]1C[C@@H](O)CN1)C(=O)N[C@@H](C)C(=O)NCC(=O)N1CCC[C@H]1C(=O)N[C@@H](CCCCN)C(=O)O [YY-101] (H-[Hyp]GQDGLAGPK-OH; N-terminus and C-terminus assumed) | 21677.4 pg/mL | 12.7 | 25629.7 pg/ml and 19701.2 pg/ml (2×) | 14.0 and 12.0 (2×) | 21011.4 pg/mL | 12.5 | 25629.7 pg/mL and 17703.4 pg/mL and 19701.2 pg/mL | 14.0 and 11.5 and 12.0 | 21011.4 pg/mL | 12.5 | 17703.4 pg/mL and 25629.7 pg/mL and 19701.2 pg/mL | 11.5 and 14.0 and 12.0 | 16072.8 pg/mL | 11.2 | 17703.4 pg/ml and 15257.5 pg/ml (2×) | 11.5 and 11.0 (2×) | 16738.7 pg/mL | 11.3 | 15257.5 pg/ml (2×) and 19701.2 pg/ml | 11.0 (2×) and 12.0 | CCL4/MIP-1 beta Concentration [11]: 18220.0 pg/mL; CCL4/MIP-1 beta MFI [11]: 11.7; CCL4/MIP-1 beta Concentration [12]: 15257.5 pg/ml and 19701.2 pg/ml (2×); CCL4/MIP-1 beta MFI [12]: 11.0 and 12.0 (2×); CCL4/MIP-1 beta MFI (PBMC + test article 0.5 nM, no LPS, Mean): 6.0; CCL4/MIP-1 beta Concentration [13]: <148.02 pg/mL; CCL4/MIP-1 beta MFI [13]: 6.0; CCL4/MIP-1 beta MFI (PBMC + test article 5 nM, no LPS, Mean): 6.5; CCL4/MIP-1 beta Concentration [14]: <148.02 pg/mL; CCL4/MIP-1 beta MFI [14]: 7.0 and 6.0; CCL4/MIP-1 beta MFI (PBMC + test article 0.05 uM, no LPS, Mean): 5.5; CCL4/MIP-1 beta Concentration [15]: <148.02 pg/mL; CCL4/MIP-1 beta MFI [15]: 6.0 and 5.0; CCL4/MIP-1 beta MFI (PBMC + test article 50 nM, no LPS, Mean): 7.5; CCL4/MIP-1 beta Concentration [16]: <148.02 pg/mL; CCL4/MIP-1 beta MFI [16]: 8.0 and 7.0; CCL4/MIP-1 beta MFI (PBMC + test article 500 nM, no LPS, Mean): 6.5; CCL4/MIP-1 beta Concentration [17]: <148.02 pg/mL; CCL4/MIP-1 beta MFI [17]: 6.0 and 7.0; LPS-induced CCL-4 (in words): significantly reduced |

Reference: patent publication US20230146455A1, “TREATMENT OF INFLAMMATORY DISEASES WITH PEPTIDES AND PHARMACEUTICAL COMPOSITIONS” (Yuyu Pharma, Inc., priority 2020, published 2023)
